Source: patent US20080262041A1, “Beta-Lactams for Treatment of Cns Disorders” (priority 2003, published 2008)
Like-named read-outs stand apart in the source and are kept apart here.

Legend:
[1] = biological target: T1, recombinant human NK1 receptors (Homo sapiens, UniProt P25103); test: NK1 receptor binding affinity, scintillation proximity assay (SPA), displacement of [125I]Tyr8-Substance P; details: average of at least two determinations, CHO cell membranes, read-out: pKi (negative logarithm of the inhibition constant), NK1 receptor SPA binding (converted)
T1 construct: expressed in transfected cells; host or cells: CHO cells (membranes)
Excerpt: NK1-receptor binding affinity has been determined in vitro in a binding Scintillation proximity assay (SPA) by measuring the compounds' ability to displace [^125I]Tyr8-Substance P (SP) from recombinant human NK1 receptors stably expressed in Chinese Hamster Ovary (CHO) cell membranes prepared by using a modification of the method described by Beattie D. T. et al. (Br. J. Pharmacol, 116:3149-3157, 1995). Briefly, polystyrene Leadseeker WGA-SPA beads (Amersham Biosciences) were mixed with cell membranes in a bead/membrane ratio of 50:1 (w/w) in assay buffer (75 mM Tris pH 7.8, 75 mM NaCl, 4 mM MnCl2, 1 mM EDTA, 0.05% Chaps, 1 mM PMSF). The mixture was placed on ice for 30 minutes to allow the formation of membrane/bead complex before BSA was added to a final concentration of 1%. After another 30 minutes incubation on ice, the bead/membrane complex was washed twice and suspended in assay buffer. [^125I]Tyr8-Substance P (2200 Ci/mmol, PerkinElmer) was then added to the bead/membrane complex with a final concentration of 0.4 nM. 30 ul of the resulting mixture was then dispensed to each well of Nalgen NUNC 384-well plate with 1 ul compound pre-dispensed in DMSO. The plates were then sealed and pulse centrifuged at 1100 rpm. After 3 hours incubation at room temperature with shaking, the plates were centrifuged for 2 min at 1100 rpm and measured in Viewlux imager (PerkinElmer) for 5 minutes with a 618-nm filter. Inhibition of [^125I]Tyr8-Substance P binding to NK1-receptors was measured by the reduction of luminescent signal. IC50 values of each compound were determined by an 11-point 3×-dilution inhibition curve. pKi values were calculated using the KD of [^125I]Tyr8-Substance P determined in a separate experiment.
The affinity of the compound of the invention for the NK1 receptor was determined using the NK1 receptor binding affinity method (Scintillation proximity assay (SPA)) measured in vitro by the compounds' ability to displace [^125I]Tyr8-Substance P (SP) from recombinant human NK1 receptors expressed in Chinese Hamster Ovary (CHO) cell membranes. The affinity values are expressed as negative logarithm of the inhibition constant (pKi) of displacer ligands.

[2] = biological target: T2, recombinant human serotonin transporter (Homo sapiens, UniProt P31645); test: hSERT binding affinity, displacement of [3H]-citalopram
T2 construct: expressed in transfected cells; host or cells: porcine LLCPK cells stably transfected with hSERT (membranes)
Protocol: SERT binding affinity has been determined in vitro by the compounds' ability to displace [^3H]-citalopram from hSERT-LLCPK cell membranes. For the binding reaction, a final concentration of 0.25 nM of [^3H] citalopram (84 Ci/mmol, Amersham) was incubated with 3-5 μg/ml of cell membrane and the compound to be tested at different concentrations (7 concentration points in duplicate) in 50 mM Tris HCl, pH 7.7, containing 120 mM NaCl, 5 mM KCl, 10 μM pargyline and 0.1% ascorbic acid. The reaction was performed for 120 min at 22° C. and was terminated through GF/B Unifilter (pre-soaked in 0.5% PEI) using a Cell Harvester (Tomtec). Scintillation fluid was added to each filtered spot and radioactivity was determined using a scintillation counter (TopCount (Packard)). Non-specific binding was determined using paroxetine (10 μM) and represents about 2-5% of the total binding. Competition experiments were conducted with duplicate determination for each point. Msat601 software package was used to elaborate the competition binding data. IC50 values were converted to Ki values using the Cheng-Prusoff equation and by using the KD of [^3H]citalopram determined in separate experiments.
The affinity of the compounds of the invention for the serotonin transporter was determined using the hSERT binding affinity method and measuring in vitro the compounds' ability to displace [^3H]-citalopram from recombinant human serotonin transporter expressed in Porcine Epithelial Kidney LLCPK cell membranes. The affinity values are expressed as negative logarithm of the inhibition constant of displacer ligands (pKi).

[3] = average of at least two determinations, [3H]-citalopram, LLCPK cell membranes, read-out: pKi, serotonin transporter binding (converted)

T2 sequence (P31645 whole entry): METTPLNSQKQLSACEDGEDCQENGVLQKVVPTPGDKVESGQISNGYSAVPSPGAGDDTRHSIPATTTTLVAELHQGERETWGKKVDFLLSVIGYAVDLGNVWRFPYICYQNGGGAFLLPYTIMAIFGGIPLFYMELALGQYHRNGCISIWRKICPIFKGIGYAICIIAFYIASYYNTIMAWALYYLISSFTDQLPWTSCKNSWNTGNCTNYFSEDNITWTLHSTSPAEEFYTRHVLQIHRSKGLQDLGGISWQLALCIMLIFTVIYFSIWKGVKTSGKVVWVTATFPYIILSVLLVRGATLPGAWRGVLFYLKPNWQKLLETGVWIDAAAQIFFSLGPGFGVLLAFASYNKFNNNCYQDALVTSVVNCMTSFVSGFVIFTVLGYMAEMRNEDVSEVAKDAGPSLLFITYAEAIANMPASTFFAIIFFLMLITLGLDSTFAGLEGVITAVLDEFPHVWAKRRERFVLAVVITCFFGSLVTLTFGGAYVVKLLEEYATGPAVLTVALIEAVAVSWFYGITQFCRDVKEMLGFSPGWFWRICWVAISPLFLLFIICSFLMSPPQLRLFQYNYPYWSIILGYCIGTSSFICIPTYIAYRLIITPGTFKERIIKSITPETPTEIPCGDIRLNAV
T1 sequence (P25103 whole entry): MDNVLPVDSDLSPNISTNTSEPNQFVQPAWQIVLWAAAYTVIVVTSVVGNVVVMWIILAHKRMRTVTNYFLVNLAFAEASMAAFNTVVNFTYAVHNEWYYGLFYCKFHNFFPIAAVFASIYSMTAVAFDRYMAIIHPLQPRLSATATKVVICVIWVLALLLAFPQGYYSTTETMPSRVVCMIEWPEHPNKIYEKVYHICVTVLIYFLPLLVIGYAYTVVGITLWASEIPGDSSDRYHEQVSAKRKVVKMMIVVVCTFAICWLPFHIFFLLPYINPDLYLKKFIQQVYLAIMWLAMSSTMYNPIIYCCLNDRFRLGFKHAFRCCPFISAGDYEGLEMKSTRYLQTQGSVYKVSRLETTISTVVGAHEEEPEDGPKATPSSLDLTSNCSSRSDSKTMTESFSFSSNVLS

Structure (SMILES)	Ki [1] [nM]	Ki [2, 3] [nM]	Ki [2] [nM]
CC(c1cc(Cl)cc(Cl)c1)N1CC=C(C2(c3ccc(F)cc3)CCNCC2)C1=O (single isomer, unassigned) [Example 5, 1-[1-(3,5-Dichlorophenyl)ethyl]-3-[4-(4-fluorophenyl)-4-piperidinyl]-1,5-dihydro-2H-pyrrol-2-one]	2.24 to 8.51	1.26 to 9.12	
CC(c1cc(Cl)cc(Cl)c1)N1CC=C(C2(c3ccc(F)cc3)CCN(C)CC2)C1=O (single isomer, unassigned) [Example 11, 1-[1-(3,5-Dichlorophenyl)ethyl]-3-[4-(4-fluorophenyl)-1-methyl-4-piperidinyl]-1,5-dihydro-2H-pyrrol-2-one]	2.24 to 8.51		1.26 to 9.12
O=C1C(C2(c3ccc(F)cc3)CCNCC2)=CCN1Cc1cc(Cl)cc(Cl)c1 [Example 1, 1-[(3,5-Dichlorophenyl)methyl]-3-[4-(4-fluorophenyl)-4-piperidinyl]-1,5-dihydro-2H-Pyrrol-2-one]	2.24 to 8.51	1.26 to 9.12	
CN1CCC(C2=CCN(Cc3cc(Cl)cc(Cl)c3)C2=O)(c2ccc(F)cc2)CC1 [Example 3, 1-[(3,5-Dichlorophenyl)methyl]-3-[4-(4-fluorophenyl)-1-methyl-4-piperidinyl]-1,5-dihydro-2H-pyrrol-2-one]	2.24 to 8.51		1.26 to 9.12
C[C@@H](c1cc(Cl)cc2ccccc12)N1CC=C(C2(c3ccc(F)cc3)CCNCC2)C1=O [Example 6, 1-[(1S)-1-(3-Chloro-1-naphthalenyl)ethyl]-3-[4-(4-fluorophenyl)-4-piperidinyl]-1,5-dihydro-2H-pyrrol-2-one]	2.24 to 8.51	1.26 to 9.12	
C[C@H](c1cc(Cl)cc2ccccc12)N1CC=C(C2(c3ccc(F)cc3)CCN(C)CC2)C1=O [Example 15, 1-[(1R)-1-(3-Chloro-1-naphthalenyl)ethyl]-3-[4-(4-fluorophenyl)-1-methyl-4-piperidinyl]-1,5-dihydro-2H-pyrrol-2-one]	2.24 to 8.51		1.26 to 9.12
CN1CCC(C2=CCN(Cc3cc(C#N)cc4ccccc34)C2=O)(c2ccc(F)cc2)CC1 [Example 16, 4-({3-[4-(4-Fluorophenyl)-1-methyl-4-piperidinyl]-2-oxo-2,5-dihydro-1H-pyrrol-1-yl}methyl)-2-naphthalenecarbonitrile]	2.24 to 8.51		1.26 to 9.12
